Data taken from patent US12714105B2, “Herbicidal mixtures and compositions and methods of use” (priority 2020, dated 2026).

Tests used:
Format in all cases: in vivo
[1] = tested on: Large Crabgrass; test: Pre-emergent control of Large Crabgrass in Kentucky bluegrass turf (field trial)
Experimental: A trial of formulations of the present invention (dithiopyr, isoxaben, MCPP, 2,4-D, and dicamba) was carried out and is shown in Table 2, below. The trial was initiated on Mar. 12, 2019 on Kentucky bluegrass. The turf was maintained at a height of 2½ inches, watered (twice weekly to ½ inch) and fertilized at local recommendations (0.5 lbs. once June 15th). Pre-emergent control of Large Crabgrass was evaluated as a percentage of the area in the test plots (1 xl meter and 3 replicates).

[2] = tested on: Large Crabgrass; test: Pre-emergent control of Large Crabgrass in Tall Fescue turf (field trial)
Experimental: (§1) A trial of formulations of the present invention (dithiopyr, isoxaben, MCPP, 2,4-D, and dicamba; e.g., dithiopyr and SLWC) was carried out and is shown in Table 3, below. The trial was initiated on Mar. 12, 2019 on Tall Fescue. The turf was maintained at the height of 2½ inches and watered (twice weekly to ½ inch). Pre-emergent control of Large Crabgrass was evaluated as a percentage of the area in the test plots (1 xl meter and 3 replicates).

[3] = tested on: Broadleaf weeds (dandelions, Oxalis, plantain and white clover); test: Pre-emergent control of Broadleaf weeds in Tall Fescue (field trial); conditions: for Percent Amount of Broadleaf weeds present in Test plots: Percent of SLWC AI's 0, Isoxaben Rate 1144 g ai/ha
Experimental: as §1, with “the formulation” for “formulations”, “dicamba,” for “dicamba;”, “4,” for “3,”, “Broadleaf weeds (dandelions, Oxalis, plantain and white clover)” for “Large Crabgrass”, “(1×1” for “(1 xl”

[4] = tested on: Broadleaf weeds (dandelions, Oxalis, and white clover); test: Pre-emergent control of Broadleaf weeds in Kentucky bluegrass (field trial); conditions: for Percent Amount of Broadleaf weeds present in Test plots: Percent of SLWC AI's 0, Isoxaben Rate 1130 g ai/ha
Experimental: A trial of formulations of the present invention (dithiopyr, isoxaben, MCPP, 2,4-D, and dicamba, e.g., dithiopyr and SLWC) was carried out and is shown in Table 5, below. The trial was initiated on Mar. 12, 2019 on Kentucky bluegrass. The turf was maintained at a height if 2½ inches and watered (twice weekly to ½ inch). Pre-emergent control of Broadleaf weeds (dandelions, Oxalis, and white clover) was evaluated as a percentage of the area in the test plots (1×1 meter and 3 replicates).

[5] = tested on: broadleaf weeds (Oxalis, Parsley-Preriot and white clover); test: Pre-emergent control of broadleaf weeds in Bermuda grass (field trial); conditions: for Percent Amount of Broadleaf weeds present in Test plots: Percent of SLWC AI's 0, Isoxaben Rate 1144 g ai/ha
Experimental: A trial of formulations of the present invention (dithiopyr, isoxaben, MCPP, 2,4-D, and dicamba, e.g., dithiopyr and SLWC) was carried out and is shown in Table 6, below. The trial was initiated on Mar. 12, 2019 on Bermuda grass. The turf was maintained at a height of 1½ inches and watered (weekly to ½ inch). Pre-emergent control of broadleaf weeds (Oxalis, Parsley-Preriot and white clover) were evaluated as a percentage of the area in the test plots (1×1 meter and 3 replicates).

[6] = 69 DA-A, dithiopyr only, Dithiopyr Rate 280 g ai/ha
[7] = 83 DA-A, dithiopyr only, Dithiopyr Rate 280 g ai/ha
[8] = 111 DA-A, dithiopyr only, Dithiopyr Rate 280 g ai/ha
[9] = 125 DA-A, dithiopyr only, Dithiopyr Rate 280 g ai/ha
[10] = 139 DA-A, dithiopyr only, Dithiopyr Rate 280 g ai/ha
[11] = 161 DA-A, dithiopyr only, Dithiopyr Rate 280 g ai/ha
[12] = 191 DA-A, dithiopyr only, Dithiopyr Rate 280 g ai/ha

What does the source list for `CSC(=O)c1c(C(F)F)nc(C(F)(F)F)c(C(=O)SC)c1CC(C)C` [Dithiopyr (Dimension), Dimethyl 2-(difluoromethyl)-4-(2-methylpropyl)-6-(trifluoromethyl)pyridine-3,5-dicarbothioate]?
Large Crabgrass, percentage of the area in the test plots [1, 6]: 0%; Large Crabgrass, percentage of the area in the test plots [1, 7]: 0%; Large Crabgrass, percentage of the area in the test plots [1, 8]: 5.7%; Large Crabgrass, percentage of the area in the test plots [1, 9]: 5%; Large Crabgrass, percentage of the area in the test plots [1, 10]: 16%; Large Crabgrass, percentage of the area in the test plots [1, 11]: 26.7%; Large Crabgrass, percentage of the area in the test plots [1, 12]: 40%; effect of the addition of Dithiopyr to SLWC on the pre-emergent control of Large Crabgrass ([1]; in words): did not affect; Large Crabgrass, percentage of the area in the test plots [2, 6]: 0%; Large Crabgrass, percentage of the area in the test plots [2, 7]: 0%; Large Crabgrass, percentage of the area in the test plots [2, 8]: 0.7%; Large Crabgrass, percentage of the area in the test plots [2, 9]: 5%; Large Crabgrass, percentage of the area in the test plots [2, 10]: 7.3%; Large Crabgrass, percentage of the area in the test plots [2, 11]: 43.3%; Large Crabgrass, percentage of the area in the test plots [2, 12]: 50%; effect of the addition of Dithiopyr to SLWC on the pre-emergent control of Large Crabgrass ([2]; in words): did not affect; effect of the addition of Dithiopyr to SLWC on the pre-emergent control of broadleaf weeds provided by Isoxaben ([3]; in words): did not affect; effect of the addition of Dithiopyr to SLWC on the pre-emergent control of broadleaf weeds provided by Isoxaben ([4]; in words): did not affect; effect of the addition of Dithiopyr to SLWC on the pre-emergent control of broadleaf weeds provided by Isoxaben ([5]; in words): did not affect

`CCC(C)(CC)c1cc(NC(=O)c2c(OC)cccc2OC)on1` [Isoxaben (Gallery 75 DF), Isoxaben] was tested. Which “Large Crabgrass, percentage of the area in the test plots” value (“Large Crabgrass, percentage of the area” for short) ([1]; 69 DA-A, isoxaben only, LR (labelled rate)) did it give?
The value was 0%.

What about the “Large Crabgrass, percentage of the area” value ([1]; 83 DA-A, isoxaben only, LR (labelled rate)) of the same compound?
The value was 0%.

What about the “Large Crabgrass, percentage of the area” value ([1]; 111 DA-A, isoxaben only, LR (labelled rate)) of the same compound?
The value was 6%.

What about the “Large Crabgrass, percentage of the area” value ([1]; 125 DA-A, isoxaben only, LR (labelled rate)) of the same compound?
Its value is 15%.

What about the “Large Crabgrass, percentage of the area” value ([1]; 139 DA-A, isoxaben only, LR (labelled rate)) of the same compound?
The value was 30%.

What about the “Large Crabgrass, percentage of the area” value ([1]; 161 DA-A, isoxaben only, LR (labelled rate)) of the same compound?
The value was 28.3%.

What about the “Large Crabgrass, percentage of the area” value ([1]; 191 DA-A, isoxaben only, LR (labelled rate)) of the same compound?
The value was 73.3%.

What about the “Large Crabgrass, percentage of the area” value ([2]; 69 DA-A, isoxaben only (rate not given)) of the same compound?
The value was 0%.

And the “Large Crabgrass, percentage of the area” value ([2]; 83 DA-A, isoxaben only (rate not given))?
The value was 0%.

What about the “Large Crabgrass, percentage of the area” value ([2]; 111 DA-A, isoxaben only (rate not given)) of the same compound?
Its value is 7.7%.

What about the “Large Crabgrass, percentage of the area” value ([2]; 125 DA-A, isoxaben only (rate not given)) of the same compound?
The value was 16%.

And the “Large Crabgrass, percentage of the area” value ([2]; 139 DA-A, isoxaben only (rate not given))?
The value was 21.7%.

What about the “Large Crabgrass, percentage of the area” value ([2]; 161 DA-A, isoxaben only (rate not given)) of the same compound?
The value was 58.3%.

What about the “Large Crabgrass, percentage of the area” value ([2]; 191 DA-A, isoxaben only (rate not given)) of the same compound?
The value was 63.3%.

What about the “Percent Amount of Broadleaf weeds present in Test plots” value (shortened to “Percent Amount”) ([3]; 6 DA-A) of the same compound?
Its value is 3.3%.

And the “Percent Amount” value ([3]; 29 DA-A)?
Its value is 2.7%.

And the “Percent Amount” value ([3]; 55 DA-A)?
Its value is 2%.

And the “Percent Amount” value ([3]; 83 DA-A)?
Its value is 8.3%.

And the “Percent Amount” value ([3]; 111 DA-A)?
The value was 2.7%.

And the “Percent Amount” value ([3]; 125 DA-A)?
The value was 0.7%.

And the “Percent Amount” value ([3]; 139 DA-A)?
The value was 4%.

What about the “Percent Amount” value ([3]; 161 DA-A) of the same compound?
The value was 0%.

What about the “Percent Amount” value ([4]; 6 DA-A) of the same compound?
Its value is 4.3%.

What about the “Percent Amount” value ([4]; 29 DA-A) of the same compound?
The value was 5%.

And the “Percent Amount” value ([4]; 55 DA-A)?
The value was 14%.

What about the “Percent Amount” value ([4]; 83 DA-A) of the same compound?
Its value is 9.7%.

What about the “Percent Amount” value ([4]; 111 DA-A) of the same compound?
The value was 17.3%.

And the “Percent Amount” value ([4]; 125 DA-A)?
Its value is 6.3%.

And the “Percent Amount” value ([4]; 139 DA-A)?
The value was 7.7%.

What about the “Percent Amount” value ([4]; 161 DA-A) of the same compound?
Its value is 1.7%.

And the “Percent Amount” value ([5]; 6 DA-A)?
The value was 6.3%.

And the “Percent Amount” value ([5]; 29 DA-A)?
Its value is 8.3%.

And the “Percent Amount” value ([5]; 55 DA-A)?
The value was 11%.

What about the “Percent Amount” value ([5]; 83 DA-A) of the same compound?
The value was 3.3%.

And the “Percent Amount” value ([5]; 111 DA-A)?
Its value is 3%.

What about the “Percent Amount” value ([5]; 125 DA-A) of the same compound?
Its value is 0%.

What about the “Percent Amount” value ([5]; 139 DA-A) of the same compound?
Its value is 0.7%.

And the “Percent Amount” value ([5]; 161 DA-A)?
Its value is 0.3%.
